From PMC12591484 (PLOS One, 2025)
Like-named read-outs stand apart in the source and are kept apart here.

Legend:
[1] = target: T1, α1M236Cβ3γ2L GABAA receptors (Homo sapiens, UniProt P14867+P18507+P28472, M263C); experiment: Drug protection from pCMBS modification (SCAMP); assay type: cell-based; conditions: α1M236C (α–); pCMBS 10 µM x 30 s; […] etomidate, 8 µM R-mTFD-MPAB or 10 µM pTFD-di-iPr-BnOH; n = 5
T1 construct: expressed in transfected cells; host or cells: Xenopus oocytes injected with capped mRNA, 1α:1β:5γ
T1 sequence (P14867 28-456 M263C): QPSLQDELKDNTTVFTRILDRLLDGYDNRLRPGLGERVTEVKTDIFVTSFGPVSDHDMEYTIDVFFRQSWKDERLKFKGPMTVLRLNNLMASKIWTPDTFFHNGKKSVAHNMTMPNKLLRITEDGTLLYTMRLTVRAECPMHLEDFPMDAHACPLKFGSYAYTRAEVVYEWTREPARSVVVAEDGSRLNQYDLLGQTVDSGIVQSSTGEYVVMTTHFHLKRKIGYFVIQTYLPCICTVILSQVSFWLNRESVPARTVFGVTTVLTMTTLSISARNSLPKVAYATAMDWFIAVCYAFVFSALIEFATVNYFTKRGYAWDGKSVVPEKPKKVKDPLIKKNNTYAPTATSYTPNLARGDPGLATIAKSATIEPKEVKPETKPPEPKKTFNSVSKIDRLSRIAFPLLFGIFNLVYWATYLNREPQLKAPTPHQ
T1 sequence (P28472 26-473): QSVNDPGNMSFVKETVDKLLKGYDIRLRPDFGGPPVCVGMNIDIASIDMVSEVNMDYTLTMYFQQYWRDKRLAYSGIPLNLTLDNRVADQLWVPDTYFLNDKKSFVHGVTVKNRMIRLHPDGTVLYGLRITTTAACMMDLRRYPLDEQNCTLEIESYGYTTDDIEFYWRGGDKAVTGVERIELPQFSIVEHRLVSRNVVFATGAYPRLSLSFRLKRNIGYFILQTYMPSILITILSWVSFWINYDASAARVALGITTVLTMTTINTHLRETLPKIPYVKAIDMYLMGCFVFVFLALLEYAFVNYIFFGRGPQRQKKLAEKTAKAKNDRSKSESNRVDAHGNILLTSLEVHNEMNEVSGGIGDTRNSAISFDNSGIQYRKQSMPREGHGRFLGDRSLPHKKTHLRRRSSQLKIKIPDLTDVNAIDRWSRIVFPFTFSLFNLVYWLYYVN
T1 sequence (P18507 40-475): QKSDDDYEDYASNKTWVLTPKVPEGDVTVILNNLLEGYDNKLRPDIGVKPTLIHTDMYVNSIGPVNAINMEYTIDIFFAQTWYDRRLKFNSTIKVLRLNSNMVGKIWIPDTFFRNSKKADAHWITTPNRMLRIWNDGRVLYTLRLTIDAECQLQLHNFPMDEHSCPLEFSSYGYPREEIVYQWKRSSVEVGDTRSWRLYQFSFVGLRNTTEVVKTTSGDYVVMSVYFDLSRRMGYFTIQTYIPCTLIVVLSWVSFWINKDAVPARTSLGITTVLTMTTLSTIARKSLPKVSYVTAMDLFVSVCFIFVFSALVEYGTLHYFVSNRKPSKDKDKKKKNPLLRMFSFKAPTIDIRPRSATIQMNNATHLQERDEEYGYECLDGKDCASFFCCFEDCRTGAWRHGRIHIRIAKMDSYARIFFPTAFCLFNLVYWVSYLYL
Method: (§1) Experiments were performed in ND-96 buffer at room temperature (20–22°C). Oocytes were placed in a low-volume (30µl) flow chamber and impaled with borosilicate microelectrodes filled with 3M KCl (resistance 0.5–3 MΩ) and voltage-clamped at −50 mV (model OC-725C; Warner Instruments, Hamden, CT, USA). Superfusate solutions in ND-96 were delivered at 2 ml/min from glass syringe reservoirs via computer-controlled valves (VC-8; Warner Instruments), a micro-manifold (ALA-VM8; ALA Scientific Instruments, Farmingdale, NY, USA), and PTFE tubing. Currents were digitized at 200 Hz on a computer running ClampEx v8.0 software (Molecular Devices, San Jose, CA, USA). Digitized traces were filtered with a 10-Hz low-pass Bessel function, leak corrected and analyzed for peak amplitude off-line using Clampfit v8 software (Molecular Devices).
(§2) Drug protection from pCMBS modification was assessed under pCMBS exposure conditions that produced approximately half of the maximal modification ratio for each mutant receptor, and a least a value of 3. This approach balanced the magnitude of functional modification signals (smaller with less pCMBS exposure) against the challenge of using a reversibly bound ligand to competitively block an irreversible covalent cysteine-modifying reaction. […] Each oocyte was used in a single SCAMP experiment. […] Etomidate was used as a positive control for anesthetic protection in α1M236C and β3M286C mutants and as a negative control in α1S270C, α1A291C, β3L231C, γ2S301C, γ2I242C, and γ2L246C mutants. R-mTFD-MPAB was used as a positive control in α1S270C, α1A291C, β3L231C, and γ2LS301C mutants and as a negative control in α1M236C and β3M286C mutants. For each cysteine mutant and protective drug combination, five oocytes were studied.
(§3) Non-linear least squares fits and statistical analyses were performed in Prism 10.4.0. (GraphPad Software, San Diego, CA, USA). […] Protection (steric inhibition of pCMBS modification) was inferred when anesthetics produced significant reductions in modification ratios relative to control (no anesthetic) values. The statistical significance threshold was p < 0.05.

α1β2N265Cγ2L receptors = conditions: at the tested concentration; etomidate binds extremely weakly; cited from earlier work
[2] = target: T2, α1S270Cβ3γ2L GABAA receptors (Homo sapiens, UniProt P14867+P18507+P28472, S297C); experiment: Drug protection from pCMBS modification (SCAMP); assay type: cell-based; design: key: +: Mutant-function studies are deemed positive when bulky mutations (mostly tryptophans) at the site significantly reduce positive modulation by anesthetics; -: Negative results are indicated by “–“ symbols; conditions: results of this study (*)
T2 construct: expressed in transfected cells; host or cells: Xenopus oocytes injected with capped mRNA, 1α:1β:5γ
T2 sequence (P14867 28-456 S297C): as the sequence (P14867 28-456 M263C) above, with C236M, S270C counted along it
T2 sequence (P28472 26-473): as the sequence (P28472 26-473) above
T2 sequence (P18507 40-475): as the sequence (P18507 40-475) above
Method: as §1, §2, §3

[3] = tested on: α1β3γ2L GABAA receptors, substituted cysteine at α1L232 (α1– M1); design: key: +: SCAMP is Substituted Cysteine Modification and Protection and is positive when adding anesthetic to cysteine modifier significantly reduces persistent post-exposure effects due to covalent modification; -: Negative results are indicated by “–“ symbols; conditions: previously reported; cited from earlier work
[4] = target: T1, α1M236Cβ3γ2L GABAA receptors; experiment: Drug protection from pCMBS modification (SCAMP); assay type: cell-based; design: key: +: Mutant-function studies are deemed positive when bulky mutations (mostly tryptophans) at the site significantly reduce positive modulation by anesthetics; -: Negative results are indicated by “–“ symbols; conditions: results of this study (*); some cells also cite [9]
Method: as §1, §2, §3

[5] = target: T3, α1β3M286Cγ2L GABAA receptors (Homo sapiens, UniProt P14867+P18507+P28472, M311C); experiment: Drug protection from pCMBS modification (SCAMP); assay type: cell-based; design: key: +: Mutant-function studies are deemed positive when bulky mutations (mostly tryptophans) at the site significantly reduce positive modulation by anesthetics; -: Negative results are indicated by “–“ symbols; conditions: results of this study (*); etomidate cell also cites [16]
T3 construct: expressed in transfected cells; host or cells: Xenopus oocytes injected with capped mRNA, 1α:1β:5γ
T3 sequence (P14867 28-456): as the sequence (P14867 28-456 M263C) above, with C236M counted along it
T3 sequence (P28472 26-473 M311C): as the sequence (P28472 26-473) above, with M286C counted along it
T3 sequence (P18507 40-475): as the sequence (P18507 40-475) above
Method: as §1, §2, §3

[6] = target: T4, α1β3γ2I242C GABAA receptors (Homo sapiens, UniProt P14867+P18507+P28472, I281C); design: key: +: Mutant-function studies are deemed positive when bulky mutations (mostly tryptophans) at the site significantly reduce positive modulation by anesthetics; -: Negative results are indicated by “–“ symbols; conditions: previously reported; cited from earlier work
T4 construct: expressed in transfected cells; host or cells: Xenopus oocytes injected with capped mRNAs mixed 1α:1β:5γ
T4 sequence (P14867 28-456): as the sequence (P14867 28-456 M263C) above, with C236M counted along it
T4 sequence (P28472 26-473): as the sequence (P28472 26-473) above
T4 sequence (P18507 40-475 I281C): as the sequence (P18507 40-475) above, with I242C counted along it

[7] = target: T5, α1β3γ2L246C GABAA receptors (Homo sapiens, UniProt P14867+P18507+P28472, L285C); design: key: +: Mutant-function studies are deemed positive when bulky mutations (mostly tryptophans) at the site significantly reduce positive modulation by anesthetics; -: Negative results are indicated by “–“ symbols; conditions: previously reported; cited from earlier work
T5 construct: expressed in transfected cells; host or cells: Xenopus oocytes injected with capped mRNAs mixed 1α:1β:5γ
T5 sequence (P14867 28-456, stated change not applied): as the sequence (P14867 28-456 M263C) above, with C236M counted along it
T5 sequence (P28472 26-473): as the sequence (P28472 26-473) above
T5 sequence (P18507 40-475 L285C): as the sequence (P18507 40-475) above, with L246C counted along it

[8] = tested on: α1β3γ2L GABAA receptors, substituted cysteine at α1L232 (α1– M1); design: key: +: Mutant-function studies are deemed positive when bulky mutations (mostly tryptophans) at the site significantly reduce positive modulation by anesthetics; -: Negative results are indicated by “–“ symbols; conditions: previously reported; cited from earlier work
[9] = tested on: α1β3γ2L GABAA receptors, substituted cysteine at β3M227 (β3– M1); design: key: +: SCAMP is Substituted Cysteine Modification and Protection and is positive when adding anesthetic to cysteine modifier significantly reduces persistent post-exposure effects due to covalent modification; -: Negative results are indicated by “–“ symbols; conditions: previously reported; cited from earlier work

## CCOC(=O)c1cncn1[C@H](C)c1ccccc1 [etomidate, R-etomidate]
[1]
  protection from pCMBS modification (significant reduction of modification ratio vs control, p < 0.05): protection was inferred
α1β2N265Cγ2L receptors
  SCAMP protection at β N265C: fails to protect
[2]
  SCAMP result, α1+ (M2, M3) S270: -*
[3]
  SCAMP result, α1– (M1) L232: +^[9]

## CC(C)c1cc(C2(C(F)(F)F)N=N2)cc(C(C)C)c1CO [pTFD-di-iPr-BnOH]
[4]
  SCAMP result, α1– (M1) M236: -*
[2]
  SCAMP result, α1+ (M2, M3) S270: -*
[5]
  SCAMP result, β3+ (M2, M3) M286: -*

## C=CCC1(c2cccc(C3(C(F)(F)F)N=N3)c2)C(=O)NC(=O)N(C)C1=O (stereo not shown) [R-mTFD-MPAB, R-5-allyl-1-methyl-5-(m-trifluoromethyl-diazirynylphenyl) barbituric acid]
[6]
  SCAMP result, γ2– (M1) I242: -^[9]
[7]
  SCAMP result, γ2– (M1) L246: -^[9]
[4]
  SCAMP result, α1– (M1) M236: -^[9], *
[5]
  SCAMP result, β3+ (M2, M3) M286: -*
[8]
  SCAMP result, α1– (M1) L232: -^[9]
[9]
  SCAMP result, β3– (M1) M227: +^[9]
